{
  "source": "EPA's ToxValDB 9.5",
  "key": {"Neovison sp.": {"test_system": "Neovison sp.", "settings": "repeat dose other; oral; Mink"}, "Coturnix japonica": {"test_system": "Coturnix japonica", "settings": "repeat dose other; oral"}, "Oryctolagus sp. [1]": {"test_system": "Oryctolagus sp."}, "Oryctolagus sp. [2]": {"test_system": "Oryctolagus sp.", "settings": "subchronic; duration: 10 weeks; oral; drinking water; M; Dutch-belted; Endocrine"}, "Oryctolagus sp. [3]": {"test_system": "Oryctolagus sp.", "settings": "for NOAEL: New Zealand"}, "Rattus norvegicus [4]": {"test_system": "Rattus norvegicus", "settings": "for LEL: uterotrophic, Active"}, "Rattus norvegicus [5]": {"test_system": "Rattus norvegicus", "settings": "short-term; duration: 3 days; injection; subcutaneous; F; Crj:CD; uterus: uterine dry weight (absolute)"}, "Cavia porcellus": {"test_system": "Cavia porcellus", "settings": "acute, duration: 1 days, oral, gavage, M, Guinea Pig"}, "Oryctolagus sp. [6]": {"test_system": "Oryctolagus sp.", "settings": "duration: 7 days, oral, gavage, New Zealand"}, "Rattus norvegicus [7]": {"test_system": "Rattus norvegicus", "settings": "oral, gavage, Sprague-Dawley; for NOAEL: reproduction developmental"}, "Oryctolagus sp. [8]": {"test_system": "Oryctolagus sp.", "experiment": "LD0; higher = less toxic", "settings": "acute; dermal; occlusive; New Zealand"}, "Macaca mulatta": {"test_system": "Macaca mulatta", "settings": "repeat dose other; oral"}, "Rattus norvegicus [9]": {"test_system": "Rattus norvegicus", "settings": "M/F"}, "Mus musculus [10]": {"test_system": "Mus musculus", "settings": "subchronic, inhalation"}, "Cricetulus sp.": {"test_system": "Cricetulus sp.", "settings": "subchronic; duration: 13 weeks; inhalation; M/F; Hamster; increased hemolysis, abnormal rbc morphology, and increased spleen weight"}, "Canidae [11]": {"test_system": "Canidae", "settings": "chronic, duration: 1 years, oral, diet, Dog Other, Cardiac toxicity and moderate-to-severe dilation of the right atrium"}, "Rattus norvegicus [12]": {"test_system": "Rattus norvegicus", "settings": "chronic; duration: 2 years; oral; diet; Whole body: Decreased weight gain"}, "Sus scrofa": {"test_system": "Sus scrofa", "settings": "short-term; duration: 19 days; oral; diet; F; Swedish Landrace/Large Yorkshire cross; reproductive"}, "Mus musculus [13]": {"test_system": "Mus musculus", "settings": "chronic, oral, diet, B6C3F1"}, "Canidae [14]": {"test_system": "Canidae", "settings": "chronic; duration: 52 weeks; oral; capsule; M/F; Beagle; hepatic"}, "Homo sapiens [15]": {"test_system": "Homo sapiens", "settings": "clinical; oral; M/F; Decreased respiratory function"}, "Oryctolagus sp. [16]": {"test_system": "Oryctolagus sp.", "remark": "listed apart in the source"}, "Mus musculus [17]": {"test_system": "Mus musculus", "settings": "acute; duration: 1 days; oral; M; DD; hepatic"}, "Homo sapiens [18]": {"test_system": "Homo sapiens", "settings": "clinical; duration: 20 days; oral; capsule; Blood: Decreased cholinesterase activity"}, "Rattus norvegicus [19]": {"test_system": "Rattus norvegicus", "settings": "short-term; duration: 28 days; oral; gavage; M/F; Wistar; Body Weight Changes: Weight gain decrease + Food Consumption: decrease + Blood Chemistry: T-Cho decrease TG decrease ALP increase Ch E …"}, "Rattus norvegicus [20]": {"test_system": "Rattus norvegicus", "settings": "chronic; duration: 2 years; oral; diet; M/F; Sherman Wistar; neurological"}, "[21]": {"settings": "subchronic, duration: 13 weeks, inhalation, M, testicular effects"}, "[22]": {"settings": "subchronic, duration: 13 weeks, inhalation, increased hemolysis, abnormal rbc morphology, and increased spleen weight"}, "[23]": {"settings": "duration: 12 weeks, Increased hemolysis, increased spleen weight, and impaired compensatory erythropoiesis"}, "[24]": {"settings": "duration: 13 weeks, M/F, increased hemolysis, abnormal rbc morphology, and increased spleen weight"}, "[25]": {"settings": "chronic, duration: 2 years, oral, diet, reduced body weight gain"}, "[26]": {"settings": "developmental, oral, F, reduced stool quantity, food consumption and body weight gain hyperirritability (maternal effects)"}},
  "data": [
    {"smiles": "ClC1C(Cl)C(Cl)C(Cl)C(Cl)C1Cl", "note": "(stereo not given) [1,2,3,4,5,6-Hexachlorocyclohexane]", "values": [
      {"measurement": "LOAEL", "setting": "Neovison sp.", "result": 0.14, "unit": "mg/kg-day"},
      {"measurement": "NOAEL", "setting": "Neovison sp.", "result": 0.014, "unit": "mg/kg-day"},
      {"measurement": "LOAEL", "setting": "Coturnix japonica", "result": 2.25, "unit": "mg/kg-day"},
      {"measurement": "NOAEL", "setting": "Coturnix japonica", "result": 0.56, "unit": "mg/kg-day"}
    ]},
    {"smiles": "ClCC(Br)CBr", "note": "(stereo not given) [1,2-Dibromo-3-chloropropane]", "values": [
      {"measurement": "LOAEL", "setting": "Oryctolagus sp. [1]; [21]", "result": 9.4, "unit": "mg/m3"},
      {"measurement": "NOAEL", "setting": "Oryctolagus sp. [1]; [21]", "result": 0.94, "unit": "mg/m3"},
      {"measurement": "NOAEL", "setting": "Oryctolagus sp. [2]", "result": 0.7, "unit": "mg/kg-day"},
      {"measurement": "NOAEL", "setting": "Oryctolagus sp. [3]; chronic, duration: 14 weeks, inhalation, M, reproductive", "result": 0.967, "unit": "mg/m3"},
      {"measurement": "LOAEL", "setting": "Oryctolagus sp. [3]; subchronic, duration: 10 weeks, oral, drinking water, M, Dutch belted, reproductive", "result": 1.88, "unit": "mg/kg-day"}
    ]},
    {"smiles": "Oc1ccccc1Cc1ccccc1O", "note": "[2,2'-Bisphenol F]", "values": [
      {"measurement": "LEL", "setting": "Rattus norvegicus [4]; duration: 3 days, injection, subcutaneous", "result": 46.5, "unit": "mg/kg-day"},
      {"measurement": "LOEL", "setting": "Rattus norvegicus [5]", "result": 200, "unit": "mg/kg-day"},
      {"measurement": "NOEL", "setting": "Rattus norvegicus [5]", "result": 20, "unit": "mg/kg-day"},
      {"measurement": "LOEL", "setting": "Cavia porcellus; BALF eosinophil peroxidase activity + BALF histamine activity + BALF total leukocytes + specific airway resistance (sRaw) - immediate …", "result": 12.5, "unit": "mg/kg-day"},
      {"measurement": "LOEL", "setting": "Cavia porcellus; BALF phospholipase A2 activity", "result": 50, "unit": "mg/kg-day"},
      {"measurement": "NOEL", "setting": "Cavia porcellus; BALF phospholipase A2 activity", "result": 25, "unit": "mg/kg-day"}
    ]},
    {"smiles": "Nc1ccc([N+](=O)[O-])cc1", "note": "[4-Nitrobenzenamine]", "values": [
      {"measurement": "NOAEL", "setting": "Oryctolagus sp. [6]; developmental", "result": 125, "unit": "mg/kg-day"},
      {"measurement": "NOAEL", "setting": "Oryctolagus sp. [6]; reproduction developmental, generation: F1", "result": 125, "unit": "mg/kg-day"},
      {"measurement": "LD50", "setting": "Rattus norvegicus [7]; acute", "result": 1400, "unit": "mg/kg"},
      {"measurement": "NOAEL", "setting": "Rattus norvegicus [7]; duration: 90 days", "result": "< 3", "unit": "mg/kg-day"},
      {"measurement": "NOAEL", "setting": "Rattus norvegicus [7]; duration: 167 days, generation: F0", "result": 1.5, "unit": "mg/kg-day"},
      {"measurement": "NOAEL", "setting": "Rattus norvegicus [7]; duration: 167 days, generation: F1", "result": 9000, "unit": "mg/kg-day"},
      {"measurement": "LD0", "setting": "Oryctolagus sp. [8]", "result": "> 7940", "unit": "mg/kg"}
    ]},
    {"smiles": "Clc1cc(Cl)cc(-c2cc(Cl)cc(Cl)c2)c1", "note": "[Aroclor 1248]", "values": [
      {"measurement": "LOAEL", "setting": "Macaca mulatta", "result": 0.1, "unit": "mg/kg-day"},
      {"measurement": "NOAEL", "setting": "Macaca mulatta", "result": 0.01, "unit": "mg/kg-day"}
    ]},
    {"smiles": "[AsH3]", "note": "[Arsine]", "values": [
      {"measurement": "LOAEL", "setting": "Rattus norvegicus [9]; [22]", "result": 1.6, "unit": "mg/m3"},
      {"measurement": "NOAEL", "setting": "Rattus norvegicus [9]; [22]", "result": 0.08, "unit": "mg/m3"},
      {"measurement": "LOAEL", "setting": "Mus musculus [10]; [23]", "result": 1.6, "unit": "mg/m3"},
      {"measurement": "NOAEL", "setting": "Mus musculus [10]; [23]", "result": 0.08, "unit": "mg/m3"},
      {"measurement": "LOAEL", "setting": "Mus musculus [10]; [24]", "result": 1.6, "unit": "mg/m3"},
      {"measurement": "NOAEL", "setting": "Mus musculus [10]; [24]", "result": 0.08, "unit": "mg/m3"},
      {"measurement": "LOAEL", "setting": "Cricetulus sp.", "result": 1.6, "unit": "mg/m3"},
      {"measurement": "NOAEL", "setting": "Cricetulus sp.", "result": 0.08, "unit": "mg/m3"}
    ]},
    {"smiles": "CCNc1nc(Cl)nc(NC(C)C)n1", "note": "[Atrazine]", "values": [
      {"measurement": "LOAEL", "setting": "Rattus norvegicus [9]; [25]", "result": 25, "unit": "mg/kg-day"},
      {"measurement": "NOAEL", "setting": "Rattus norvegicus [9]; [25]", "result": 3.5, "unit": "mg/kg-day"},
      {"measurement": "LOAEL", "setting": "Canidae [11]; F", "result": 33.8, "unit": "mg/kg-day"},
      {"measurement": "NOAEL", "setting": "Canidae [11]; M/F", "result": 4.97, "unit": "mg/kg-day"},
      {"measurement": "LOAEL", "setting": "Canidae [11]; M", "result": 33.6, "unit": "mg/kg-day"},
      {"measurement": "NOEL", "setting": "Rattus norvegicus [12]", "result": 3.5, "unit": "mg/kg-day"},
      {"measurement": "LOAEL", "setting": "Sus scrofa", "result": 1, "unit": "mg/kg-day"},
      {"measurement": "NOAEL", "setting": "Oryctolagus sp. [3]; reproduction developmental, duration: 12 days, oral, gavage, F, body weight", "result": 1, "unit": "mg/kg-day"}
    ]},
    {"smiles": "COC(=O)c1cc(Oc2ccc(Cl)cc2Cl)ccc1[N+](=O)[O-]", "note": "[Bifenox]", "values": [
      {"measurement": "LOAEL", "setting": "Mus musculus [13]; duration: 2 years, M/F, Urinary", "result": 7, "unit": "mg/kg-day"},
      {"measurement": "NOAEL", "setting": "Canidae [14]", "result": 145, "unit": "mg/kg-day"}
    ]},
    {"smiles": "Cc1ccc([N+](=O)[O-])cc1N", "note": "[C.I. Azoic Diazo Component 12]", "values": [
      {"measurement": "LOAEL", "setting": "Mus musculus [13]; duration: 78 weeks, F", "result": 207, "unit": "mg/kg-day"}
    ]},
    {"smiles": "CC(C)NCC(O)COc1cccc2[nH]c3ccccc3c12", "note": "(stereo not given) [Carazolol]", "values": [
      {"measurement": "NOEL", "setting": "Homo sapiens [15]", "result": 0.0005, "unit": "mg/kg-day"}
    ]},
    {"smiles": "S=C=S", "note": "[Carbon disulfide]", "values": [
      {"measurement": "NOEL", "setting": "Oryctolagus sp. [1]; developmental, oral, M/F, fetal toxicity/ malformations", "result": 11, "unit": "mg/kg-day"},
      {"measurement": "NOEL", "setting": "Oryctolagus sp. [16]; developmental, inhalation, intermittent, Fetus: Toxicity", "result": 11, "unit": "mg/kg-day"},
      {"measurement": "LOAEL", "setting": "Mus musculus [17]", "result": 3, "unit": "mg/kg-day"}
    ]},
    {"smiles": "CCOC(=O)C(O)(c1ccc(Cl)cc1)c1ccc(Cl)cc1", "note": "[Chlorobenzilate]", "values": [
      {"measurement": "LEL", "setting": "Oryctolagus sp. [1]; [26]", "result": 20, "unit": "mg/kg-day"},
      {"measurement": "NOEL", "setting": "Oryctolagus sp. [1]; [26]", "result": 5, "unit": "mg/kg-day"},
      {"measurement": "NOEL", "setting": "Oryctolagus sp. [16]; short-term, duration: 13 days, oral, gavage, Gastrointestinal system: Decreased stool quantity + Nervous system: Hyperirritability + Whole body: Decreased food consumption + Whole body…", "result": 5, "unit": "mg/kg-day"}
    ]},
    {"smiles": "CCOP(=S)(OCC)Oc1nc(Cl)c(Cl)cc1Cl", "note": "[Chlorpyrifos]", "values": [
      {"measurement": "NOEL", "setting": "Rattus norvegicus [4]; Hershberger, duration: 10 days, oral, gavage, Sprague-Dawley, inactive + Negative + Negative + anti-androgenic + negative", "result": 2, "unit": "mg/kg-day"},
      {"measurement": "LEL", "setting": "Rattus norvegicus [4]; duration: 56 days, oral", "result": 0.1, "unit": "mg/kg-day"},
      {"measurement": "NOEL", "setting": "Homo sapiens [18]", "result": 0.03, "unit": "mg/kg-day"},
      {"measurement": "NOEL", "setting": "Rattus norvegicus [19]", "result": 0.1, "unit": "mg/kg-day"},
      {"measurement": "NOAEL", "setting": "Rattus norvegicus [20]", "result": 0.1, "unit": "mg/kg-day"}
    ]}
  ]
}
